Assay results as given in patent US20180141962A1, “AZACARBAZOLE BTK INHIBITORS” (MERCK SHARP & DOHME CORP., priority 2015, published 2018).

Molecular target: T1, BTK enzyme (recombinant full-length BTK, hBTK) (Homo sapiens, UniProt Q06187)
T1 construct: recombinant protein from baculovirus-transfected Sf9 cells: full-length BTK, 6HIS-tag cleaved; 6HIS (cleaved yes); made in house; host or cells: baculovirus-transfected Sf9 cells
Assay: Btk enzyme activity assay, LANCE TR-FRET
Type: biochemical
Conditions: 50 pM hBTK, 2 μM biotin-A5-peptide, 25 μM ATP; 60 minute compound & enzyme incubation; 120 minutes reaction; read-out: BTK binding potency IC50
Protocol: Btk Enzyme Activity Assay Methods
BTK enzymatic activity was determined with the LANCE (Lanthanide Chelate Excite) TR-FRET (lime-resolved fluorescence resonance energy transfer) assay. […] Phosphorylation reactions were allowed to proceed for 120 minutes. […] After 60 minutes incubation with detection reagents, reaction plates were read on a PerkinElmer EnVision plate reader using standard TR-FRET protocol. Briefly, excitation of donor molecules (Eu-chelate:anti-phospho-antibody) with a laser light source at 337 nm produces energy that can be transferred to Dylight-650 acceptor molecules if this donor:acceptor pair is within close proximity. Fluorescence intensity at both 665 nm (acceptor) and 615 nm (donor) are measured and a TR-FRET ratio calculated for each well (acceptor intensity/donor intensity). IC50 values were determined by 4 parameter robust fit of TR-FRET ratio values vs. (Log10) compound concentrations.

T1 sequence (Q06187 whole entry): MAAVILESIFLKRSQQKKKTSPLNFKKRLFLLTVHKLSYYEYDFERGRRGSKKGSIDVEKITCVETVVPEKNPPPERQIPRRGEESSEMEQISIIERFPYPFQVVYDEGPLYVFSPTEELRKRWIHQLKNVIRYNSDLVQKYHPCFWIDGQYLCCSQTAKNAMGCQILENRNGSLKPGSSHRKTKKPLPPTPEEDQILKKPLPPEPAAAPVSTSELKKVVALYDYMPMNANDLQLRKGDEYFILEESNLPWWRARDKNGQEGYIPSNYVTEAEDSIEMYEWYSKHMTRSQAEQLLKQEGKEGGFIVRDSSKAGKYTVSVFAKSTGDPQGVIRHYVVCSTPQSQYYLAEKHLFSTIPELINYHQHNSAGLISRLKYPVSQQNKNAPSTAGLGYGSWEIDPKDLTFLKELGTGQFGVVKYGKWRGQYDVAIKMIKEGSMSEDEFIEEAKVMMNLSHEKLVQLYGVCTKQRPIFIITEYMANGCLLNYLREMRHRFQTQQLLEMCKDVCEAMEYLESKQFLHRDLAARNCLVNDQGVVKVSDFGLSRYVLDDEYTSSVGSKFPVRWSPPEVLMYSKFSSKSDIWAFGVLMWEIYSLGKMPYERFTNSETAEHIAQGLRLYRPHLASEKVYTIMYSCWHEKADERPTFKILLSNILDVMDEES

Row | SMILES | IC50
1 | CC(C)(C)c1ccc(N2CCC3(CCCN(c4ncc(C(N)=O)c5[nH]c6ccccc6c45)C3)CC2=O)cc1 (stereo not drawn) [Example 38, 1-[9-(4-tert-butylphenyl)-8-oxo-2,9-diazaspiro[5.5]undec-2-yl]-5H-pyrido[4,3-b]indole-4-carboxamide] | 420 nM
2 | COc1ccc(-c2ccc3c(c2)[nH]c2c(C(N)=O)cnc(N4CCC[C@@]5(CCN(C)C5=O)C4)c23)cn1 [Example 74, 7-(6-methoxypyridin-3-yl)-1-[(5R)-2-methyl-1-oxo-2,7-diazaspiro[4.5]dec-7-yl]-5H-pyrido[4,3-b]indole-4-carboxamide] | 8.9 nM
3 | NC(=O)c1cnc(N2CCCC3(CCN(c4ccc(F)cc4)C3=O)C2)c2c1[nH]c1ccccc12 (stereo not drawn) [Example 32, 1-[2-(4-fluorophenyl)-1-oxo-2,7-diazaspiro[4.5]dec-7-yl]-5H-pyrido[4,3-b]indole-4-carboxamide] | 244 nM
4 | NC(=O)c1cnc(N2CCC[C@@]3(CCCN(c4ccc(F)cc4)C3=O)C2)c2c1[nH]c1ccc(F)cc12 [Example 6, 8-fluoro-1-[(6R)-8-(4-fluorophenyl)-7-oxo-2,8-diazaspiro[5.5]undec-2-yl]-5H-pyrido[4,3-b]indole-4-carboxamide] | 853 nM
5 | CC(C)(O)CN1CCC(c2ccc3c(c2)[nH]c2c(C(N)=O)cnc(N4CCCC5(CCNC5=O)C4)c23)CC1 (stereo not drawn) [Example 54, 7-[1-(2-hydroxy-2-methylpropyl)piperidin-4-yl]-1-(1-oxo-2,7-diazaspiro[4.5]dec-7-yl)-5H-pyrido[4,3-b]indole-4-carboxamide] | 1.2 nM
6 | NC(=O)c1cnc(N2CCC[C@@]3(CCNC3=O)C2)c2c1[nH]c1cc(C3CCC(=O)NC3)ccc12 (stereo partly drawn) [Example 73, 1-[(5R)-1-oxo-2,7-diazaspiro[4.5]dec-7-yl]-7-(6-oxopiperidin-3-yl)-5H-pyrido[4,3-b]indole-4-carboxamide] | 0.74 nM
7 | COc1ccc(-c2ccc3c(c2)[nH]c2c(C(N)=O)cnc(N4CCC[C@@]5(CCNC5=O)C4)c23)cn1 [Example 67, 7-(6-methoxypyridin-3-yl)-1-[(5R)-1-oxo-2,7-diazaspiro[4.5]dec-7-yl]-5H-pyrido[4,3-b]indole-4-carboxamide] | 13.9 nM
8 | NC(=O)c1cnc(N2CCC[C@]3(CCCN(c4ccc(F)cc4)C3=O)C2)c2c1[nH]c1ccccc12 [Example 2, (S)-1-(8-(4-fluorophenyl)-7-oxo-2,8-diazaspiro[5.5]undecan-2-yl)-5H-pyrido[4,3-b]indole-4-carboxamide] | 12.9 nM
9 | NC(=O)c1cnc(N2CCC[C@@]3(C2)C(=O)NC[C@@H]3O)c2c1[nH]c1ccccc12 [Example 18, 1-[(4R,5S)-4-hydroxy-1-oxo-2,7-diazaspiro[4.5]dec-7-yl]-5H-pyrido[4,3-b]indole-4-carboxamide] | 117 nM
10 | NC(=O)c1cnc(N2CCCC3(CCNC3=O)C2)c2c1[nH]c1ccc(C3CCN(CC(=O)O)CC3)cc12 (stereo not drawn) [Example 48, {4-[4-carbamoyl-1-(1-oxo-2,7-diazaspiro[4.5]dec-7-yl)-5H-pyrido[4,3-b]indol-8-yl]piperidin-1-yl}acetic acid] | 47.6 nM
11 | CN1CC(CO)C2(CCCN(c3ncc(C(N)=O)c4[nH]c5ccccc5c34)C2)C1=O (single isomer, unassigned) [Example 90, cis-1-(4-(hydroxymethyl)-2-methyl-1-oxo-2,7-diazaspiro[4.5]decan-7-yl)-5H-pyrido[4,3-b]indole-4-carboxamide] | 115 nM
12 | CN1CCC(c2ccc3[nH]c4c(C(N)=O)cnc(N5CCCC6(CCNC6=O)C5)c4c3c2)CC1 (stereo not drawn) [Example 60, 8-(1-methylpiperidin-4-yl)-1-(1-oxo-2,7-diazaspiro[4.5]dec-7-yl)-5H-pyrido[4,3-b]indole-4-carboxamide] | 76.9 nM
13 | NC(=O)c1cnc(N2CCCC3(CCNC3=O)C2)c2c1[nH]c1cc(C3CCCNC3)ccc12 (stereo not drawn) [Example 44, 1-(1-oxo-2,7-diazaspiro[4.5]dec-7-yl)-7-piperidin-3-yl-5H-pyrido[4,3-b]indole-4-carboxamide] | 1.6 nM
14 | NC(=O)c1cnc(N2CCCC3(CCNC(=O)C3)C2)c2c1[nH]c1ccccc12 (stereo not drawn) [Example 37, 1-(8-oxo-2,9-diazaspiro[5.5]undec-2-yl)-5H-pyrido[4,3-b]indole-4-carboxamide] | 46.4 nM
15 | CC(C)(C)OC(=O)N1CC2(CCN(c3ncc(C(N)=O)c4[nH]c5ccccc5c34)CC2)C1 [Example 16, tert-butyl 7-(4-carbamoyl-5H-pyrido[4,3-b]indol-1-yl)-2,7-diazaspiro[3.5]nonane-2-carboxylate] | 98.7 nM
16 | NC(=O)c1cnc(N2CCCC3(CCNC3=O)C2)c2c1[nH]c1cc(C3CCNCC3)ccc12 (stereo in doubt) [Example 63, 1-[(5S)-1-oxo-2,7-diazaspiro[4.5]dec-7-yl]-7-piperidin-4-yl-5H-pyrido[4,3-b]indole-4-carboxamide] | 6.3 nM
17 | NC(=O)c1cnc(N2CCC3(CCNCC3)C2)c2c1[nH]c1ccccc12 [Example 15, 1-(2,8-diazaspiro[4.5]dec-2-yl)-5H-pyrido[4,3-b]indole-4-carboxamide] | 37.4 nM
18 | NC(=O)c1cnc(N2CCCC3(CCNC3=O)C2)c2c1[nH]c1ccc(C(=O)O)cc12 (stereo not drawn) [Example 84, 4-carbamoyl-1-(1-oxo-2,7-diazaspiro[4.5]dec-7-yl)-5H-pyrido[4,3-b]indole-8-carboxylic acid] | 48.8 nM
19 | NC(=O)c1cnc(N2CCCC3(CCNC3=O)C2)c2c1[nH]c1cc(C(=O)O)ccc12 (stereo not drawn) [Example 85, 4-carbamoyl-1-(1-oxo-2,7-diazaspiro[4.5]dec-7-yl)-5H-pyrido[4,3-b]indole-7-carboxylic acid] | 448 nM
20 | NC(=O)c1cnc(N2CCC3(CCNC3)CC2)c2c1[nH]c1ccccc12 [Example 12, 1-(2,8-diazaspiro[4.5]dec-8-yl)-5H-pyrido[4,3-b]indole-4-carboxamide] | 35 nM

Next, values leading:

Row | IC50 | SMILES
21 | 0.83 nM | CC(C)N1CCC(c2ccc3c(c2)[nH]c2c(C(N)=O)cnc(N4CCC[C@@]5(CCNC5=O)C4)c23)CC1 [Example 71, 7-[1-(1-methylethyl)piperidin-4-yl]-1-[(5R)-1-oxo-2,7-diazaspiro[4.5]dec-7-yl]-5H-pyrido[4,3-b]indole-4-carboxamide]
22 | 26 nM | CC(=O)N1CCC2(CCN(c3ncc(C(N)=O)c4[nH]c5ccccc5c34)CC2)C1 [Example 14, 1-(2-acetyl-2,8-diazaspiro[4.5]dec-8-yl)-5H-pyrido[4,3-b]indole-4-carboxamide]
23 | 204 nM | NC(=O)c1cnc(N2CCCC3(CCNC3=O)C2)c2c1[nH]c1ccc(C3CCNCC3)cc12 (stereo not drawn) [Example 45, 1-(1-oxo-2,7-diazaspiro[4.5]dec-7-yl)-8-piperidin-4-yl-5H-pyrido[4,3-b]indole-4-carboxamide]
24 | 22 nM | NC(=O)c1cnc(N2CCC3(CC2)CNC3)c2c1[nH]c1ccccc12 [Example 19, 1-(2,7-diazaspiro[3.5]non-7-yl)-5H-pyrido[4,3-b]indole-4-carboxamide]
25 | 160 nM | NC(=O)c1cnc(N2CC3(CCNC3)C2)c2c1[nH]c1ccccc12 [Example 26, 1-(2,6-diazaspiro[3.4]oct-2-yl)-5H-pyrido[4,3-b]indole-4-carboxamide]
26 | 2.1 nM | CS(=O)(=O)N1CCC(c2ccc3c(c2)[nH]c2c(C(N)=O)cnc(N4CCCC5(CCNC5=O)C4)c23)CC1 (stereo not drawn) [Example 57, 7-[1-(methylsulfonyl)piperidin-4-yl]-1-(1-oxo-2,7-diazaspiro[4.5]dec-7-yl)-5H-pyrido[4,3-b]indole-4-carboxamide]
27 | 0.63 nM | NC(=O)c1cnc(N2CCCC3(CCNC3=O)C2)c2c1[nH]c1cc(C3CCNCC3)ccc12 (stereo in doubt) [Example 64, 1-[(5R)-1-oxo-2,7-diazaspiro[4.5]dec-7-yl]-7-piperidin-4-yl-5H-pyrido[4,3-b]indole-4-carboxamide]
28 | 28 nM | NC(=O)c1cnc(N2CCCC3(CCCNC3=O)C2)c2c1[nH]c1ccccc12 (stereo not drawn) [Example 30, 1-(7-oxo-2,8-diazaspiro[5.5]undec-2-yl)-5H-pyrido[4,3-b]indole-4-carboxamide]
29 | 435 nM | CC(C)(C)OC(=O)N1CCC2(C1)CN(c1ncc(C(N)=O)c3[nH]c4ccccc4c13)C2 [Example 21, tert-butyl 2-(4-carbamoyl-5H-pyrido[4,3-b]indol-1-yl)-2,6-diazaspiro[3.4]octane-6-carboxylate]
30 | 19.4 nM | NC(=O)c1cnc(N2CCC3(CC2)CNC(=O)C3)c2c1[nH]c1ccccc12 [Example 10, 1-(3-oxo-2,8-diazaspiro[4.5]dec-8-yl)-5H-pyrido[4,3-b]indole-4-carboxamide]
31 | 34.2 nM | NC(=O)c1cnc(N2CCC[C@]3(CCCN(c4ccc(F)cc4)C3=O)C2)c2c1[nH]c1ccc(F)cc12 [Example 7, 8-fluoro-1-[(6S)-8-(4-fluorophenyl)-7-oxo-2,8-diazaspiro[5.5]undec-2-yl]-5H-pyrido[4,3-b]indole-4-carboxamide]

Same assay, conditions: BTK binding potency IC50 (nM), 50 pM hBTK, 2 μM biotin-A5-peptide, 25 μM ATP; 60 minute compound & enzyme incubation; 120 minutes reaction

Row | IC50 | SMILES
32 | 121 nM | NC(=O)c1cnc(N2CCCC3(CCNC3=O)C2)c2c1[nH]c1ccccc12 (stereo in doubt) [Example 40, 1-[(5R)-1-oxo-2,7-diazaspiro[4.5]dec-7-yl]-5H-pyrido[4,3-b]indole-4-carboxamide]
33 | 17.2 nM | NC(=O)c1cnc(N2CCCC3(CCNC3=O)C2)c2c1[nH]c1ccccc12 (stereo not drawn) [Example 34, 1-(1-oxo-2,7-diazaspiro[4.5]dec-7-yl)-5H-pyrido[4,3-b]indole-4-carboxamide]
